Data from US20250110152A1, “METHOD FOR CHARACTERIZING INTERACTION FORCE BETWEEN LIGNIN AND CELLULASE” (NANJING FORESTRY UNIVERSITY, priority 2022, published 2025).

System: cellulase
Experiment: AFM test of lignin-cellulase interaction force and dissociation rate in liquid phase environment (cellulase-modified AFM probe, lignin film)
Details: for interaction force between lignin / lignin model substance and cellulase: AFM force-displacement curves, liquid phase; for Feq: system lignin (model substance)-cellulase

| Structure (SMILES) | interaction force between lignin / lignin model substance and cellulase [nN] | most likely dissociation force (loading rate 3 pN/s) [nN] | most likely dissociation force (loading rate 10 pN/s) [nN] | Feq [nN] | most likely dissociation force (loading rate 5 pN/s) [nN] | most likely dissociation force (loading rate 15 pN/s) [nN] | most likely dissociation force (loading rate 20 pN/s) [nN] | other results |
| --- | --- | --- | --- | --- | --- | --- | --- | --- |
| COc1cc(C(O)C(CO)Oc2ccccc2OC)ccc1O (stereo not shown) [GG] | 2.59 |  | 1.92 | 2.59 | 1.65 | 2.27 | 2.46 | most likely dissociation force (loading rate 24.24 pN/s): 2.59 nN |
| CCCc1ccc(O)c(OC)c1 [G] | 0.97 | 0.87 |  | 0.97 |  |  |  | most likely dissociation force (loading rate 1 pN/s): 0.39 nN; most likely dissociation force (loading rate 5.74 pN/s): 0.97 nN; most likely dissociation force (loading rate 7 pN/s): 1.06 nN; most likely dissociation force (loading rate 12 pN/s): 1.25 nN |
| O=C(O)/C=C/c1ccc(O)cc1 [H] | 12.52 |  | 10.04 | 12.52 | 5.00 | 11.29 | 12.52 | most likely dissociation force (loading rate 7 pN/s): 5.49 nN |
| COc1ccccc1OC(CO)C(O)c1cc(OC)c(O)c(OC)c1 (stereo not shown) [SG] | 11.69 |  | 7.65 | 11.69 |  | 8.80 |  | most likely dissociation force (loading rate 13 pN/s): 8.25 nN; most likely dissociation force (loading rate 18.64 pN/s): 11.69 nN; most likely dissociation force (loading rate 23 pN/s): 13.40 nN |
| COc1cccc(OC)c1O [S] | 4.76 | 3.02 |  | 4.76 | 4.05 |  | 8.54 | most likely dissociation force (loading rate 7.89 pN/s): 4.76 nN; most likely dissociation force (loading rate 12 pN/s): 5.21 nN |

Now from value to molecule, other results behind:

| interaction force between lignin / lignin model substance and cellulase [nN] | most likely dissociation force (loading rate 3 pN/s) [nN] | most likely dissociation force (loading rate 10 pN/s) [nN] | Feq [nN] | most likely dissociation force (loading rate 5 pN/s) [nN] | most likely dissociation force (loading rate 15 pN/s) [nN] | most likely dissociation force (loading rate 20 pN/s) [nN] | Structure (SMILES) | other results |
| --- | --- | --- | --- | --- | --- | --- | --- | --- |
| 0.58 | 0.39 | 0.88 | 0.58 |  |  |  | COc1ccccc1O [GA] | most likely dissociation force (loading rate 4 pN/s): 0.41 nN; most likely dissociation force (loading rate 6.61 pN/s): 0.58 nN; most likely dissociation force (loading rate 9 pN/s): 0.63 nN |
| 4.31 | 3.99 | 4.58 | 4.31 |  |  |  | COc1cc(/C=C/CO)cc(OC)c1O [S—OH] | most likely dissociation force (loading rate 1 pN/s): 2.66 nN; most likely dissociation force (loading rate 5.79 pN/s): 4.31 nN; most likely dissociation force (loading rate 18 pN/s): 6.58 nN |
